Experimental data reported in patent US9815854B2, “3-(3H-imidazo[4,5-B]pyridin-2-yl)-1H-pyrazolo[3,4-C]pyridine and therapeutic uses thereof” (Samumed, LLC, priority 2014, dated 2017).

Columns and labels:
[1] = test system: Wnt activity (Sp5-Luc reporter, TCF/LEF binding sites) in SW480 colon carcinoma cells; assay: Sp5-Luc Wnt reporter gene screening assay in SW480 colon carcinoma cells; assay type: cell-based, human; conditions: Homo sapiens
Description: The screening assay for Wnt activity is described as follows. Reporter cell lines can be generated by stably transducing cancer cell lines (e.g., colon cancer) or primary cells (e.g., IEC-6 intestinal cells) with a lentiviral construct that includes a Wnt-responsive promoter driving expression of the firefly luciferase gene.
SW480 colon carcinoma cells were transduced with a lentiviral vector expressing luciferase with a human Sp5 promoter consisting of a sequence of eight TCF/LEF binding sites. SW480 cells stably expressing the Sp5-Luc reporter gene and a hygromycin resistance gene were selected by treatment with 150 μg/ml of hygroinycin for 7 days. These stably transduced SW480 cells were expanded in cell culture and used for all further screening activities. For Sp5-Luc reporter gene assays, the cells were plated at 10,000 cells/well in 96-well plates with growth medium containing 10% fetal calf serum and incubated overnight at 37° C. and 5% CO2. Each compound was dissolved in DMSO as a 10 mM stock in standard j-vials and used to prepare compound source plates in dose-response format with 3-fold serial dilutions and a 10 mM top concentration. Compound transfer from serially diluted source plates to assay plates containing the cells was accomplished using a pintool (Multimek 96, Beckman equipped with V&P Scientific FP1S50H pins) based liquid handling protocol. This protocol used a slotted pin to transfer 50 nl of compound from a source plate well to an assay plate well containing 50 μl of cells in growth medium. […] Control wells received 50 nl of DMSO treatment for nommlization and calculating IC50 values. The treated cells were incubated at 37° C. and 5% CO2 for an additional forty-two hours. Following incubation, the growth medium was removed and 50 μl of BrightGlo luminescence reagent (Promega) was added to each well of the 96-well assay plates. The plates were placed on an orbital shaker for 5 min and then luminescence was quantified on the Victor3 (Perkin Elmer) plate reader. Readings were normalized to DMSO only treated cells, and normalized activities were utilized for IC50 calculations using the dose-response log (inhibitor) vs. response—variable slope (four parameters) nonlinear regression feature available in GraphPad Prism 5.0 or 6.0.

[2] = test system: primary human fibroblasts derived from IPF patients (LL29 cells); assay: Inhibition of the fibrotic process in TGF-β1-treated primary human fibroblasts from IPF patients (αSMA staining); assay type: cell-based; conditions: Fibroblast, 96 h, TGF-β1 20 ng/mL, 4 days, read-out: Inhibition of fibrosis EC50
Description: The above synthesized compounds were screened using primary human fibroblasts (derived from IPF patients) treated with TGF-β1 to determine their ability to inhibit the fibrotic process.
Human Fibroblast Celt Culture: Primary human fibroblasts derived from IPF patients (LL29 cells) [^1Xiaoqiu Liu, et.al., “Fibrotic Luna Fibroblasts Show Blunted Inhibition by cAMP Due to Deficient cAMP Response Element-Binding Protein Phosphorylation”, Journal of Pharmacology and Experimental Therapeutics (2005), 315(2), 678-687; ^2Watts, K. L., et.al., “RhoA signaling modulates cyclin D1 expression in human lung fibroblasts; implications for idiopathic pulmonary fibrosis”, Respiratory Research (2006), 7(1), 88] were obtained from American Type Culture Collection (ATCC) and expanded in F12 medium supplemented with 15% Fetal Bovine Serum and Penicillin/Streptomycin.
Compound Screening: Each compound was dissolved in DMSO as a 10 mM stock and used to prepare compound source plates. Serial dilution (1:2, 11-point dose-response curves from 10 μM to […]) and compound transfer was performed using the ECHO 550 (Lahcyte, Sunnyvale, Calif.) into 384-well clear bottom assay plates (Greiner Bio-One) with appropriate DMSO backfill fhr a final DMSO concentration of 0.1%. LL29 cells were plated at 1,500 cells/well in 80 μl/well F12 medium supplemented with 1% Fetal Bovine Serum. One hour after addition of the cells. TGF-β1 (Peprotech; 20 ng/mL) was added to the plates to induce fibrosis (ref. 1 and 2 above), Wells treated with TGF-β1 and containing DMSO were used as controls. Cells were incubated at 37° C. and 5% CO2 for 4 days. Following incubation for 4 days, SYTOX green nucleic acid stain (Life Technologies [Thermo Fisher Scientific]) was added to the wells at a final concentration of 1 uM and incubated at room temperature for 30 min. Cells were then fixed using 4% formaldehyde (Electron Microscopy Sciences), washed 3 times with PBS followed by blocking and penneabilization using 3% Bovine Serum Albumin (BSA; Sigma) and 0.3% Triton X-100 (Sigma) in PBS. Cells were then stained with antibody specific to α-smooth muscle actin (αSMA; Abeam) (ref 1 and 2 above) in 3% Bovine Serum Albumin (BSA; Sigma) and 0.3% Triton X-100 (Sigma) in PBS, and incubated overnight at 4° C. Cells were then washed 3 times with PBS, followed by incubation with Alexa Flor-647 conjugated secondary antibody (Life Technologies [Thermo Fisher Scientific]) and DAPI at room temperature for 1 hour, Cells were then washed 3 times with PBS and plates were sealed for imaging. αSMA staining was imaged by excitation at 630 nm and emission at 665 nm and quantified using the Compartmental Analysis program on the CellInsight CX5 (Thermo Scientific). Dead or apoptotic cells were excluded from analysis based on positive SYTOX green staining. % of total cells positive for αSMA were counted in each well and normalized to the average of 11 wells treated with TGF-β1 on the same plate using Dotmatics' Studies Software. The normalized averages (fold change over untreated) of 3 replicate wells for each compound concentration were used to create dose-responses curves and EC50 values were calculated using non-linear regression curve fit in the Dotmatics' Studies Software. The EC50 values are reported.

SMILES	IC50 [1] [nM]	EC50 [2] [nM]
CN(C)c1cncc(-c2cc3c(-c4nc5c(-c6cccc(F)c6)ccnc5[nH]4)n[nH]c3cn2)c1 [Compound 7, 5-(3-(7-(3-Fluorophenyl)-3H-imidazo[4,5-b]pyridin-2-yl)-1H-pyrazolo[3,4-c]pyridin-5-yl)-N,N-dimethylpyridin-3-amine]	85.4	406
CC(C)(C)C(=O)Nc1cncc(-c2cc3c(-c4nc5c(-c6cccc(F)c6)ccnc5[nH]4)n[nH]c3cn2)c1 [Compound 8, N-(5-(3-(7-(3-Fluorophenyl)-3H-imidazo[4,5-b]pyridin-2-yl)-1H-pyrazolo[3,4-c]pyridin-5-yl)pyridin-3-yl)pivalamide]	155	75
CN(C)Cc1cncc(-c2cc3c(-c4nc5c(-c6cccc(F)c6)ccnc5[nH]4)n[nH]c3cn2)c1 [Compound 13, 1-(5-(3-(7-(3-Fluorophenyl)-3H-imidazo[4,5-b]pyridin-2-yl)-1H-pyrazolo[3,4-c]pyridin-5-yl)pyridin-3-yl)-N,N-dimethylmethanamine]	290	745
CCCC(=O)Nc1cncc(-c2cc3c(-c4nc5c(-c6cccc(F)c6)ccnc5[nH]4)n[nH]c3cn2)c1 [Compound 17, N-(5-(3-(7-(3-Fluorophenyl)-3H-imidazo[4,5-b]pyridin-2-yl)-1H-pyrazolo[3,4-c]pyridin-5-yl)pyridin-3-yl)butyramide]	59.7	≤ 9
O=C(Nc1cncc(-c2cc3c(-c4nc5c(-c6cccc(F)c6)ccnc5[nH]4)n[nH]c3cn2)c1)C1CC1 [Compound 19, N -(5-(3-(7-(3-Fluorophenyl)-3H-imidazo[4,5-b]pyridin-2-yl)-1H-pyrazolo[3,4-c]pyridin-5-yl)pyridin-3-yl)cyclopropanecarboxamide]	46.5	301
Fc1ccc(-c2ccnc3[nH]c(-c4n[nH]c5cnc(-c6cncc(CN7CCCC7)c6)cc45)nc23)cc1 [Compound 40, 3-(7-(4-Fluorophenyl)-3H-imidazo[4,5-b]pyridin-2-yl)-5-(5-(pyrrolidn-1-ylmethyl)pyridin-3-yl)-1H-pyrazolo[3,4-c]pyridine]	321	348
CCCC(=O)Nc1cncc(-c2cc3c(-c4nc5c(-c6ccc(F)cc6)ccnc5[nH]4)n[nH]c3cn2)c1 [Compound 43, N-(5-(3-(7-(4-Fluorophenyl)-3H-imidazo[4,5-b]pyridin-2-yl)-1H-pyrazolo[3,4-c]pyridin-5-yl)pyridin-3-yl)butyramide]	21.2	69
O=C(Nc1cncc(-c2cc3c(-c4nc5c(-c6ccc(F)cc6)ccnc5[nH]4)n[nH]c3cn2)c1)C1CCC1 [Compound 46, N-(5-(3-(7-(4-Fluorophenyl)-3H-imidazo[4,5-b]pyridin-2-yl)-1H-pyrazolo[3,4-c]pyridin-5-yl)pyridin-3-yl)cyclobutanecarboxamide]	50.8	240
Fc1ccc(-c2ccnc3[nH]c(-c4n[nH]c5cnc(-c6cncnc6)cc45)nc23)cc1 [Compound 52, 3-(7-(4-Fluorophenyl)-3H-imidazo[4,5-b]pyridin-2-yl)-5-(pyrimidin-5-yl)-1H-pyrazolo[3,4-c]pyridine]	65.3	259

Further lines, with some results ahead:

IC50 [1] [nM]	SMILES	EC50 [2] [nM]
26.8	Nc1cncc(-c2cc3c(-c4nc5c(-c6ccccc6F)ccnc5[nH]4)n[nH]c3cn2)c1 [Compound 55, 5-(3-(7-(2-Fluorophenyl)-3H-imidazo[4,5-b]pyridin-2-yl)-1H-pyrazolo[3,4-c]pyridin-5-yl)pyridin-3-amine]	20
45.5	CC(C)(C)C(=O)Nc1cncc(-c2cc3c(-c4nc5c(-c6ccccc6F)ccnc5[nH]4)n[nH]c3cn2)c1 [Compound 60]	≤ 9
128	CCCC(=O)Nc1cncc(-c2cc3c(-c4nc5c(-c6ccccc6F)ccnc5[nH]4)n[nH]c3cn2)c1 [Compound 69, N-(5-(3-(7-(2-Fluorophenyl)-3H-imidazo[4,5-b]pyridin-2-yl)-1H-pyrazolo[3,4-c]pyridin-5-yl)pyridin-3-yl)butyramide]	210
36.9	O=C(Nc1cncc(-c2cc3c(-c4nc5c(-c6ccccc6F)ccnc5[nH]4)n[nH]c3cn2)c1)C1CCCC1 [Compound 73, N-(5-(3-(7-(2-Fluorophenyl)-3H-imidazo[4,5-b]pyridin-2-yl)-1H-pyrazolo[3,4-c]pyridin-5-yl)pyridin-3-yl)cyclopentanecarboxamide]	324
> 10000	c1cncc(-c2cc3c(-c4nc5c(-c6cccnc6)ccnc5[nH]4)n[nH]c3cn2)c1 [Compound 82, 5-(Pyridin-3-7-(pyridin-3-yl)-3H-imidazo[4,5-b]pyridin-2-yl)-1H-pyrazolo[3,4-c]pyridine]	≤ 9
> 10000	CC(C)C(=O)Nc1cncc(-c2cc3c(-c4nc5c(-c6cccnc6)ccnc5[nH]4)n[nH]c3cn2)c1 [Compound 87, N-(5-(3-(7-(Pyridin-3-yl)-3 H-imidazo[4,5-b]pyridin-2-yl)-1H-pyrazolo[3,4-c]pyridin-5-yl)pyridin-3-yl)isobutyramide]	≥ 9990
> 10000	CC(C)Nc1cncc(-c2cc3c(-c4nc5c(-c6cccnc6)ccnc5[nH]4)n[nH]c3cn2)c1 [Compound 90, N-Isopropyl-5-(3-(7-(pyridin-3-yl)-3H-imidazo[4,5-b]pyridin-2-yl)-1H-pyrazolo[3,4-c]pyridin-5-yl)pyridin-3-amine]	≥ 9990
> 10000	c1ccc(CNCc2cncc(-c3cc4c(-c5nc6c(-c7cccnc7)ccnc6[nH]5)n[nH]c4cn3)c2)cc1 [Compound 101]	≤ 9
745	CCNCc1cncc(-c2cc3c(-c4nc5c(-c6ccccn6)ccnc5[nH]4)n[nH]c3cn2)c1 [Compound 136, N-((5-(3-(7-(Pyridin-2-yl)-3H-imidazo[4,5-b]pyridin-2-yl)-1H-pyrazolo[3,4-c]pyridin-5-yl)pyridin-3-yl)methyl)ethanamine]	≤ 9
> 10000	O=C(Nc1cncc(-c2cc3c(-c4nc5c(-c6ccccn6)ccnc5[nH]4)n[nH]c3cn2)c1)c1ccccc1 [Compound 141, N-(5-(3-(7-(Pyridin-2-yl)-3H-imidazo[4,5-b]pyridin-2-yl)-1H-pyrazolo[3,4-c]pyridin-5-yl)pyridin-3-yl)benzamide]	≥ 9990
> 10000	CCCCC(=O)Nc1cncc(-c2cc3c(-c4nc5c(-c6ccccn6)ccnc5[nH]4)n[nH]c3cn2)c1 [Compound 148, N-(5-(3-(7-(Pyridin-2-yl)-3H-imidazo[4,5-b]pyridin-2-yl)-1H-pyrazolo[3,4-c]pyridin-5-yl)pyridin-3-yl)pentanamide]	≤ 9
